Tests used:
[1] = GC retention time (DB-5MS, GC-APCI); higher = later elution
Protocol: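 Standards of hydrophobic organic contaminants were analysed by GC-APCI (positive mode, dry or wet source conditions) coupled to cyclic ion mobility-QTOF MS. CCS was measured for the base ion (sometimes a fragment ion) in N2 drift gas (one-pass mode, calibrated with a Waters 22-compound mix). 5 mL/min).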

[2] = collision cross section (N2, base ion); higher = larger ion cross section
Protocol: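 Standards of hydrophobic organic contaminants were analysed by GC-APCI (positive mode, dry or wet source conditions) coupled to cyclic ion mobility-QTOF MS. CCS was measured for the base ion (sometimes a fragment ion) in N2 drift gas (one-pass mode, calibrated with a Waters 22-compound mix).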

Structure (SMILES) | GC retention time [1] [min] | collision cross section [2] [Å²]
Clc1cc(Cl)c(-c2cc(Cl)c(Cl)cc2Cl)cc1Cl [PCB 153] (APCI source condition: Dry, base ion: M+.) | 20.3 | 161.05
O=P(OC(CCl)CCl)(OC(CCl)CCl)OC(CCl)CCl [Tris(1,3-dichloropropan-2-yl) phosphate] (APCI source condition: Wet, base ion: [M+H]+) | 20.4 | 175.08
c1cc2ccc3cccc4ccc(c1)c2c34 [Pyrene] (APCI source condition: Dry, base ion: M+.) | 18.9 | 137.65
Clc1ccc(Cl)c(-c2cc(Cl)ccc2Cl)c1 [PCB 52] (APCI source condition: Dry, base ion: M+.) | 17.1 | 149.21
c1ccc2c(c1)-c1cccc3cccc-2c13 [Fluoranthene] (APCI source condition: Dry, base ion: M+.) | 18.4 | 138.02
CCCCCCCCCCCCCCCCC(F)(F)C(F)(F)C(F)(F)C(F)(F)C(F)(F)C(F)(F)C(F)(F)C(F)(F)F [1-(Perfluoro-n-octyl)hexadecane] (APCI source condition: Dry, base ion: [M-H]+) | 16.8 | 226.94
ClC1C(Cl)C(Cl)C(Cl)C(Cl)C1Cl (stereo not drawn) [α-Hexachlorocyclohexane] (APCI source condition: Dry, base ion: [M-H2Cl3]+) | 14.5 | 137.25
O=S1OC[C@@H]2[C@H](CO1)[C@@]1(Cl)C(Cl)=C(Cl)[C@]2(Cl)C1(Cl)Cl (stereo partly drawn) [α-Endosulfan] (APCI source condition: Wet, base ion: [M+H]+) | 18.9 | 163.16
ClC1C(Cl)C(Cl)C(Cl)C(Cl)C1Cl (centres undefined) [γ-Hexachlorocyclohexane] (APCI source condition: Dry, base ion: [M-H2Cl3]+) | 15.2 | 137.38
c1ccc2c(c1)ccc1cc3c(ccc4ccccc43)cc12 [Dibenzo(a,h)anthracene] (APCI source condition: Dry, base ion: M+.) | 27.2 | 154.91
Brc1cc(Br)c(Br)c(Br)c1Br [Pentabromobenzene] (APCI source condition: Dry, base ion: M+.) | 18.5 | 135.24
Cc1c(Br)c(Br)c(Br)c(Br)c1Br [Pentabromotoluene] (APCI source condition: Dry, base ion: M+.) | 20.1 | 140.29
c1cc2ccc3ccc4ccc5cccc6c(c1)c2c3c4c56 [Benzo(g,h,i)perylene] (APCI source condition: Dry, base ion: M+.) | 27.1 | 150.71
Clc1ccc(Cl)c(-c2ccccc2Cl)c1 [PCB 18] (APCI source condition: Dry, base ion: M+.) | 15.4 | 140.01
ClC1=C(Cl)C2(Cl)C3C(Cl)C=CC3C1(Cl)C2(Cl)Cl (centres undefined) [Heptachlor] (APCI source condition: Dry, base ion: [M-H]+) | 16.7 | 157.41
Clc1ccc(-c2c(Cl)ccc(Cl)c2Cl)cc1Cl [PCB 110] (APCI source condition: Dry, base ion: M+.) | 19.4 | 152.9
CCCCC(CC)COP(=O)(OCC(CC)CCCC)OCC(CC)CCCC (centres undefined) [Tris(2-ethylhexyl) phosphate] (APCI source condition: Wet, base ion: [M+H]+) | 21.5 | 221.61
O=P(OCCCl)(OCCCl)OCCCl [Tris(2-chloroethyl) phosphate] (APCI source condition: Wet, base ion: [M+H]+) | 15.1 | 145.65
Brc1cc(Oc2c(Br)cc(Br)c(Br)c2Br)cc(Br)c1Br [PBDE 191] (APCI source condition: Dry, base ion: M+.) | 29 | 187.91
Clc1cc(Cl)c(Cl)c(Cl)c1Cl [Pentachlorobenzene] (APCI source condition: Dry, base ion: M+.) | 12.4 | 135.24
CC(CCl)OP(=O)(OC(C)CCl)OC(C)CCl (centres undefined) [Tris(1-chloro-2-propyl)phosphate] (APCI source condition: Wet, base ion: [M-C3H4Cl]+) | 15.4 | 160.76

Structure (SMILES) | GC retention time [1] [min] | collision cross section [2] [Å²]
Clc1ccccc1-c1ccccc1Cl [PCB 4] (APCI source condition: Dry, base ion: M+.) | 13.6 | 137.64
Clc1ccc(Cl)c(-c2c(Cl)c(Cl)c(Cl)c(Cl)c2Cl)c1Cl [PCB 200] (APCI source condition: Dry, base ion: M+.) | 22.2 | 167.33
Brc1ccc(Oc2ccc(Br)c(Br)c2Br)c(Br)c1 [PBDE 85] (APCI source condition: Dry, base ion: M+.) | 25 | 170.22
CCCCCCCCCCCCCCC=CC(F)(F)C(F)(F)C(F)(F)C(F)(F)C(F)(F)C(F)(F)C(F)(F)C(F)(F)C(F)(F)C(F)(F)C(F)(F)C(F)(F)F [1-(Perfluorododecyl)-hexadec-1-ene] (APCI source condition: Dry, base ion: [M-H]+) | 18 | 255.25
Brc1ccc(Oc2ccc(Br)cc2Br)cc1 [PBDE 28] (APCI source condition: Dry, base ion: M+.) | 20.1 | 154.31
ClC1=C(Cl)C2(Cl)[C@H]3[C@@H]4O[C@@H]4[C@H](Cl)[C@H]3C1(Cl)C2(Cl)Cl (stereo partly drawn) [Heptachlor-exo-epoxide] (APCI source condition: Dry, base ion: [M-H]+) | 18.2 | 151.86
Brc1cc(Br)c(OCCOc2c(Br)cc(Br)cc2Br)c(Br)c1 [1,2-Bis(2,4,6-tribromophenoxy)ethane] (APCI source condition: Dry, base ion: M+.) | 29 | 186.57
Clc1ccc(-c2ccccc2)cc1 [PCB 3] (APCI source condition: Dry, base ion: M+.) | 13.2 | 137.62
Brc1ccc(Br)c(Oc2c(Br)c(Br)c(Br)c(Br)c2Br)c1 [PBDE 185] (APCI source condition: Dry, base ion: M+.) | 28.6 | 182.95
ClC(Cl)=C(c1ccc(Cl)cc1)c1ccccc1Cl [2,4'-DDE] (APCI source condition: Dry, base ion: M+.) | 18.7 | 154.54
CCCCCCCCCCCCCCCCC(F)(F)C(F)(F)C(F)(F)C(F)(F)C(F)(F)C(F)(F)C(F)(F)C(F)(F)C(F)(F)C(F)(F)C(F)(F)C(F)(F)F [1-(Perfluorododecyl)hexadecane] (APCI source condition: Dry, base ion: [M-H]+) | 18.4 | 256.66
ClC1=C(Cl)[C@]2(Cl)[C@H]3[C@H]([C@H]4C=C[C@@H]3C4)[C@@]1(Cl)C2(Cl)Cl [Isodrin] (APCI source condition: Dry, base ion: M+.) | 18 | 150.98
c1ccc2cc3c(ccc4ccccc43)cc2c1 [Benzo(a)anthracene] (APCI source condition: Dry, base ion: M+.) | 21.8 | 140.47
Brc1cccc(Oc2ccc(Br)c(Br)c2)c1 [PBDE 35] (APCI source condition: Dry, base ion: M+.) | 20.3 | 154.86
Clc1ccc(-c2ccc(Cl)c(Cl)c2Cl)c(Cl)c1Cl [PCB 128] (APCI source condition: Dry, base ion: M+.) | 21.3 | 158.12
CCCCCCCCCCCCCCCCC(F)(F)C(F)(F)C(F)(F)C(F)(F)C(F)(F)C(F)(F)C(F)(F)C(F)(F)C(F)(F)C(F)(F)F [1-(Henicosafluorodecyl)hexadecane] (APCI source condition: Dry, base ion: [M-H]+) | 17.6 | 241.65
c1ccc2cc3ccccc3cc2c1 [Anthracene] (APCI source condition: Dry, base ion: M+.) | 15.7 | 138
ClC1=C(Cl)[C@]2(Cl)[C@@H]3[C@@H]4C[C@@H]([C@H]5O[C@@H]45)[C@@H]3[C@@]1(Cl)C2(Cl)Cl [Dieldrin] (APCI source condition: Dry, base ion: M+.) | 19.8 | 151.16
Clc1ccc(C(c2ccccc2Cl)C(Cl)Cl)cc1 (centres undefined) [2,4'-DDD] (APCI source condition: Dry, base ion: [M-CHCl2]+) | 19.4 | 140.45
c1ccc2c(c1)-c1ccc3ccc4cccc5cc-2c1c3c45 [Indeno(1,2,3-cd)pyrene] (APCI source condition: Dry, base ion: M+.) | 27.7 | 148.24
Brc1ccc(Oc2ccc(Br)c(Br)c2)cc1Br [PBDE 77] (APCI source condition: Dry, base ion: M+.) | 23 | 164.62

From the supplement of paper PMC11923942
